The source of these data is ChEMBL document CHEMBL3879888, “2,4,6-triamino-1,3,5-triazine derivative” (2008).

Molecules are shown by their SMILES. Active and inactive are the calls of the source. The calls are words filed in the database; no cut-off is given here.

In the first assay the target is T1, Voltage-gated inwardly rectifying potassium channel KCNH3 (Homo sapiens) (UniProt Q9ULD8).
T1 sequence (whole entry): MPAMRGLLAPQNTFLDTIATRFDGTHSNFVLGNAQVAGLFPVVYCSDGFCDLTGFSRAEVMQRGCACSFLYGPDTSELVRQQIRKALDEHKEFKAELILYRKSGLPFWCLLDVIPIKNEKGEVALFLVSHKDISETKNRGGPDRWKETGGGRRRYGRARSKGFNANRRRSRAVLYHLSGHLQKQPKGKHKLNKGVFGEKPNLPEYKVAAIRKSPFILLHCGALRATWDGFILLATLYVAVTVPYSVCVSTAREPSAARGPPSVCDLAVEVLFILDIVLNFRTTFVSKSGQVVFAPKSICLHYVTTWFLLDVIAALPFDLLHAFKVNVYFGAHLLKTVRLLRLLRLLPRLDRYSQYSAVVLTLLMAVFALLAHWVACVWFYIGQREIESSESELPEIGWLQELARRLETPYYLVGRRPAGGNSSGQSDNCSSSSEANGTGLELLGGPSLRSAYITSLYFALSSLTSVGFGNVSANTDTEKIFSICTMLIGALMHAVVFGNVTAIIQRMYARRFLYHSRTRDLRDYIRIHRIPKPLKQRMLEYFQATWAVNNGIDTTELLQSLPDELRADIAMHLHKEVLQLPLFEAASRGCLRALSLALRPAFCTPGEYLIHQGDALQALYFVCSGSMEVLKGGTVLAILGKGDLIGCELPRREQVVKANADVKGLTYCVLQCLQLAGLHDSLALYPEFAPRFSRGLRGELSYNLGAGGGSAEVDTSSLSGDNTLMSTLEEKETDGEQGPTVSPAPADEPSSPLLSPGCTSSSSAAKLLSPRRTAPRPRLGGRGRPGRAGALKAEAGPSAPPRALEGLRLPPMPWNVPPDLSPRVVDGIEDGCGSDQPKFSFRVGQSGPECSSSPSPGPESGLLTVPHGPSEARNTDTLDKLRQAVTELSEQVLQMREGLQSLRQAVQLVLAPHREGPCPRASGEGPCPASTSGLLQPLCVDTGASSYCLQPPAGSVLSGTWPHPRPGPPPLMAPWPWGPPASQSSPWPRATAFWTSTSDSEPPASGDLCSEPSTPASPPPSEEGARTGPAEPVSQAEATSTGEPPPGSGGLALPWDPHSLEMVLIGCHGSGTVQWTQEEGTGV
Nature of the assay: Inhibition of BEC1 (unknown origin) expressed in dihydrofolate reductase-deficient CHO cells assessed as decrease in KCl-induced intracellular 86Rb ion release at 3 uM after 20 mins relative to control. It is filed as cell-based.
As a reminder, the inhibition is the share of the control response that was lost under treatment. Consider `CCOC(=O)CCCNc1nc(Nc2ccccc2)nc(Nc2ccccc2)n1`, for which the inhibition was 29%.
Same read-out and setting: then `Cc1ccc([N+](=O)[O-])cc1Nc1nc(Nc2ccccc2)nc(Nc2ccccc2)n1`, with 22%.
As for `COc1ccc(CNc2nc(Nc3ccccc3)nc(Nc3ccccc3)n2)cc1`, the inhibition came out at 31%.
On the same count and under the same terms, then `CSc1ccc(Nc2nc(Nc3ccc(SC)cc3)nc(NC(C)C)n2)cc1`, with 10%; and `CSC1CCC[C@H]1Nc1nc(Nc2ccccc2)nc(Nc2ccccc2)n1` (stereo partly drawn), with 34%; and `CC(C)Nc1nc(Nc2ccccc2)nc(Nc2ccc3c(c2)CCC3)n1`, with 18%.
Same read-out and setting: then `CSc1ccccc1Nc1nc(Nc2ccccc2)nc(Nc2ccccc2)n1`, with 17%; and `CC(C)Nc1nc(Nc2ccccc2)nc(Nc2ccc(F)cc2)n1`, with 25%; and `O=[N+]([O-])c1ccc(CCNc2nc(Nc3ccccc3)nc(Nc3ccccc3)n2)cc1`, with 33%.
On the same count and under the same terms, then `CCOC(=O)CNc1nc(Nc2ccccc2)nc(Nc2ccccc2)n1`, with 21%; and `CC(C)Nc1nc(Nc2ccc3c(c2)OCCO3)nc(Nc2ccc3c(c2)OCCO3)n1`, with 11%; and `Clc1ccc(CNc2nc(Nc3ccccc3)nc(Nc3ccccc3)n2)cc1`, with 45%.
As to `O=[N+]([O-])c1cccc(Nc2nc(Nc3ccccc3)nc(Nc3ccccc3)n2)c1`, the inhibition was 12%.
As to `Cc1cc(O)ccc1Nc1nc(Nc2ccccc2)nc(Nc2ccccc2)n1`, the inhibition came to 31%.
`CC(C)Nc1nc(Nc2ccccc2)nc(Nc2ccc(Br)cc2)n1`: the inhibition was determined as 27%.
On the same count and under the same terms, to `c1ccc(Nc2nc(NCc3cccnc3)nc(Nc3ccccc3)n2)cc1` belongs 59%.
As to `CC(C)Nc1nc(Nc2ccccc2)nc(Nc2ccc3c(c2)OCCO3)n1`, the inhibition was determined as 40%.
On the same count and under the same terms, then `O=C1NCCCCC1Nc1nc(Nc2ccccc2)nc(Nc2ccccc2)n1` (stereo not drawn), with 23%.
Same read-out and setting: to `O=C1NCCCC[C@@H]1Nc1nc(Nc2ccccc2)nc(Nc2ccccc2)n1` belongs 10%; to `Fc1ccccc1CNc1nc(Nc2ccccc2)nc(Nc2ccccc2)n1`, 33%; to `Cc1c(O)cccc1Nc1nc(Nc2ccccc2)nc(Nc2ccccc2)n1`, 37%.
`NC(=O)CNc1nc(Nc2ccccc2)nc(Nc2ccccc2)n1`: the inhibition was determined as 22%.
The same measure, in the same setting: then `c1ccc(Nc2nc(NCC3CC3)nc(Nc3ccccc3)n2)cc1`, with 51%; and `OC[C@@H](CNc1nc(Nc2ccccc2)nc(Nc2ccccc2)n1)c1ccccc1`, with 50%; and `c1ccc(Nc2nc(Nc3ccccc3)nc(NC3CCCC3)n2)cc1`, with 19%.
In the case of `c1ccc(Nc2nc(NCCc3cccs3)nc(Nc3ccccc3)n2)cc1`, the inhibition was 10%.
For the molecule `Cc1cnc(CNc2nc(Nc3ccccc3)nc(Nc3ccccc3)n2)cn1`, the inhibition was 29%.
The same measure, in the same setting: to `Brc1ccc(CNc2nc(Nc3ccccc3)nc(Nc3ccccc3)n2)cc1` belongs 33%.
For the molecule `CSC1COC[C@H]1Nc1nc(Nc2ccccc2)nc(Nc2ccccc2)n1` (stereo partly drawn), the inhibition came out at 49%.
Still for that read-out and setting: then `c1ccc(Nc2nc(Nc3ccccc3)nc(Nc3ccc4c(c3)OCCO4)n2)cc1`, with 15%; and `Cc1ccc(CNc2nc(Nc3ccccc3)nc(Nc3ccccc3)n2)cc1`, with 35%.
Turning to `C=CCNc1nc(Nc2ccccc2)nc(Nc2ccccc2)n1`, the inhibition was determined as 44%.
Regarding `OC1CCCCC1Nc1nc(Nc2ccccc2)nc(Nc2ccccc2)n1` (stereo not drawn), the inhibition is 23%.
Same read-out and setting: then `CCOC(=O)C(C)Nc1nc(Nc2ccccc2)nc(Nc2ccccc2)n1` (stereo not drawn), with 36%.
On the same count and under the same terms, then `OCCc1ccccc1Nc1nc(Nc2ccccc2)nc(Nc2ccccc2)n1`, with 40%.
As to `CC(C)Nc1nc(Nc2ccc(Br)cc2)nc(Nc2ccc(Br)cc2)n1`, the inhibition was 11%.
The same measure, in the same setting: to `Fc1cccc(CNc2nc(Nc3ccccc3)nc(Nc3ccccc3)n2)c1` belongs 34%.

The subject of the next assay is Mus musculus. As to the kind of experiment: Inhibition of electroconvulsive shock-induced amnesia in ddy mouse at 3 mg/kg, ip by passive avoidance test. Type of assay: functional, organism-based.
Consider `Fc1ccc(Nc2nc(NCc3ccnc(F)c3)nc(Nc3ccccc3)n2)cc1`, for which the inhibition result was “Active”.
